# Like-named read-outs stand apart in the source and are kept apart here.
# Experiments:
# [1] = test system: methacholine-induced bronchoconstriction in Balb/c mice; experiment: Bronchodilatory effect of inhaled compounds, Example II (10 min to 48 h)
# Protocol: Female BALB/c mice, weight range 19-22 g, were obtained from Charles River Laboratories (Kingston, N.C.). They received food and water ad libitum.
# Compounds for aerosol administration were prepared in sterile Dulbecco's Phosphate Buffered Saline.
# Mice were placed in a carousel-style, nose only, exposure chamber and allowed to inhale aerosols for five minutes, using an ICN SPAG-2 nebulizer.
# Bronchoconstriction was induced in mice by administration of an 80 mg/ml methacholine (MC) aerosol into the plethysmograph chambers for 5 minutes. […] The average enhanced pause (lung resistance) was determined. In order to determine the baseline, saline aerosol (without methacholine) was also separately administered to the mice.
# muscarinic receptor M2 = target: T1, muscarinic receptor M2 (Homo sapiens, UniProt P08172); experiment: Muscarinic receptor subtype M2 binding assay, radioligand displacement
# T1 construct: expressed in transfected cells
# T1 sequence (P08172 1-466): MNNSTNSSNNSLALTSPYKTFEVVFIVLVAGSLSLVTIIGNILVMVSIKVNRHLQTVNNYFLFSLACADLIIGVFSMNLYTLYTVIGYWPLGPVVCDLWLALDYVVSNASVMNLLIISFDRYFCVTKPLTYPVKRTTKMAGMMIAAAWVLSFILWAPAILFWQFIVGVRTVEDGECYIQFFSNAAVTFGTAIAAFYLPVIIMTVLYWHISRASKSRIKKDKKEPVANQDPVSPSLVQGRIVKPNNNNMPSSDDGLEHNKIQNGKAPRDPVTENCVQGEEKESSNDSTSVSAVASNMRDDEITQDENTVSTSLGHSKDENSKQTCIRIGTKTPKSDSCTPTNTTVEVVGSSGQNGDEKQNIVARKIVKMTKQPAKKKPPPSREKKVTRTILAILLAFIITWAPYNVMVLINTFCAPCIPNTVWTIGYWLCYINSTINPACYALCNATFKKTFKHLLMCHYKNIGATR
# Protocol: (§1) Muscarinic receptor subtype M1-M5 binding assays were carried out. Briefly, [3]H-methylscopolamine was allowed to bind to membranes from various recombinant mammalian cell lines, each with an over-expression of a particular receptor subtype.
# (§2) Muscarinic receptor subtype M1-M5 binding assays were performed.
# [2] = Pharmacokinetics of inhaled quaternary ammonium salts, plasma levels; format: in vivo, Balb/c mice
# Protocol: Blood samples were taken from the mice in example II via cardiac puncture under isoflurane anesthesia at 2.5 minutes, 10 minutes, 30 minutes, 2 hours, 4 hours, 8 hours, or 12 hours after aerosol drug treatment.
# The samples were collected in tubes containing EDTA and centrifuged at 12000×g for four minutes. Plasma was removed and stored at −70° C. until assay.
# Plasma samples were extracted via a liquid/liquid extraction technique. […] Chromatographically, the analyte and the internal standard were resolved on a Phenomenex Phenyl-Hexyl column using an isocratic elution. The limit of quantitation was 24 pg/ml.
# muscarinic receptor M5 = target: T2, muscarinic receptor M5 (Homo sapiens, UniProt P08912); experiment: Muscarinic receptor subtype M5 binding assay, radioligand displacement; conditions: Ki values, receptor subtype M5, [3]H-methylscopolamine displacement, membranes from recombinant mammalian cell lines
# T2 construct: expressed in transfected cells
# T2 sequence (P08912 1-532): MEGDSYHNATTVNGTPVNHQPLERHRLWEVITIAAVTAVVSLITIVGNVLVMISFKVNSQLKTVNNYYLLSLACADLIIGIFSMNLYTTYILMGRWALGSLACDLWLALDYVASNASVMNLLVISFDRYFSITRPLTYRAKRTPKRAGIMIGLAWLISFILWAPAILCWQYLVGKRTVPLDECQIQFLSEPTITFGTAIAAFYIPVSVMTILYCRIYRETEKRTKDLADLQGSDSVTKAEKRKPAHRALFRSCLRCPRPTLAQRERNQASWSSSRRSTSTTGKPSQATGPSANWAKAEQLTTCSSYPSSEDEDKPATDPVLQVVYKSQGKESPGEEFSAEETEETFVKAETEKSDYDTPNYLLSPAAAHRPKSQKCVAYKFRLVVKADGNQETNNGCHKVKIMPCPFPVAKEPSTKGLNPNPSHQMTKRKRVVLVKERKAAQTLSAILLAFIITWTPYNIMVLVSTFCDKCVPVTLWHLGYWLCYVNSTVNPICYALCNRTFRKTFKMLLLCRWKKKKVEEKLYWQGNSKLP
# Protocol: as §1, §2
# muscarinic receptor M3 = target: T3, muscarinic receptor M3 (Homo sapiens, UniProt P20309); experiment: Muscarinic receptor subtype M3 binding assay, radioligand displacement; conditions: Ki values, receptor subtype M3
# T3 construct: expressed in transfected cells
# T3 sequence (P20309 whole entry): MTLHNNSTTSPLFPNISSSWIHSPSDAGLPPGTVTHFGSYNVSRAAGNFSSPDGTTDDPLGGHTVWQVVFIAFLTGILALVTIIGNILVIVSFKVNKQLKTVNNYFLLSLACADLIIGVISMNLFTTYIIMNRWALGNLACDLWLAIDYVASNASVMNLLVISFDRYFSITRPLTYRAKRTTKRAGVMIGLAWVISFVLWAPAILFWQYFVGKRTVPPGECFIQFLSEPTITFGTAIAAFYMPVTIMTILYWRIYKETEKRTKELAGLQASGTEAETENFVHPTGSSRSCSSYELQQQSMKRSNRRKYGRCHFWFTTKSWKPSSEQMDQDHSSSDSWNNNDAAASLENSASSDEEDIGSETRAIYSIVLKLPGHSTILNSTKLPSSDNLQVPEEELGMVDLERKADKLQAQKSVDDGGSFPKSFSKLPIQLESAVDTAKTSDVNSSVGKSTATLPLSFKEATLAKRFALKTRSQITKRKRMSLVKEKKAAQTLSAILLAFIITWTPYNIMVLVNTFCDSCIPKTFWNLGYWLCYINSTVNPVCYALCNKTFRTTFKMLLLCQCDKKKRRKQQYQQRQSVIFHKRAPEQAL
# Protocol: as §1, §2
# muscarinic receptor M1 = target: T4, muscarinic receptor M1 (Homo sapiens, UniProt P11229); experiment: Muscarinic receptor subtype M1 binding assay, radioligand displacement
# T4 construct: expressed in transfected cells
# T4 sequence (P11229 1-460): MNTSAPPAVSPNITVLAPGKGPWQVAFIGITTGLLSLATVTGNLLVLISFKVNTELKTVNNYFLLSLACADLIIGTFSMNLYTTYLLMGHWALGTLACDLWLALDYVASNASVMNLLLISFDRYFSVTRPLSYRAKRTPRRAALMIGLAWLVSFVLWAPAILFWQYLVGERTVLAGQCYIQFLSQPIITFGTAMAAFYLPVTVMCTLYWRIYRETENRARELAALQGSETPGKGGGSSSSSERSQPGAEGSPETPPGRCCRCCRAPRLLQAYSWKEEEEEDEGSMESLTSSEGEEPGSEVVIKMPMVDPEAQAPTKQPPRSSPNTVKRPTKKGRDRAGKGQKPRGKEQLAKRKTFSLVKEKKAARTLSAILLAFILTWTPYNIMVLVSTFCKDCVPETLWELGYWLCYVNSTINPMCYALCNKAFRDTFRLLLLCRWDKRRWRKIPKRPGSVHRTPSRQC
# Protocol: as §1, §2
# muscarinic receptor M4 = target: T5, muscarinic receptor M4 (Homo sapiens, UniProt P08173); experiment: Muscarinic receptor subtype M4 binding assay, radioligand displacement
# T5 construct: expressed in transfected cells
# T5 sequence (P08173 1-479): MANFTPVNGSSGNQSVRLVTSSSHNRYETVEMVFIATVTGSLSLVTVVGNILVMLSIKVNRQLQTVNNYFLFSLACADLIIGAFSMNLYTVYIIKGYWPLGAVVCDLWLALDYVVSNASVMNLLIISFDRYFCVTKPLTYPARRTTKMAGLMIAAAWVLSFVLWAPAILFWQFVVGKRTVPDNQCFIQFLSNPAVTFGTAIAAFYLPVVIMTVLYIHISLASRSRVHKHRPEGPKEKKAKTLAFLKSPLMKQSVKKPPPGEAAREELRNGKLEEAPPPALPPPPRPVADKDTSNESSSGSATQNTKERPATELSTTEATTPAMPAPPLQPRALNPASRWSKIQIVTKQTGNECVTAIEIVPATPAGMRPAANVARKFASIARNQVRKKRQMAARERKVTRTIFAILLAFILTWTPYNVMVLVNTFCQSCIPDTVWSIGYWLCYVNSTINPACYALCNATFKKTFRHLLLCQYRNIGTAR
# Protocol: as §1, §2
# [3] = Balb/c, mouse, plasma, inhaled, inhalation of 0.072 mg/ml, read-out: Plasma concentration ± std dev
# [4] = Balb/c, mouse, plasma, inhaled, inhalation of 0.144 mg/ml, read-out: Plasma concentration ± std dev
# [5] = Balb/c, mouse, plasma, inhaled, inhalation of 1.44 mg/ml, read-out: Plasma concentration ± std dev
compound,measurement,setting,value
Cc1ccc(O)c([C@H](CC[N+](C)(C(C)C)C(C)C)c2ccccc2)c1.[I-] [Example 2],"prevention of methacholine-induced bronchoconstriction, time following administration","[1]; inhalation of aerosol from 0.072 mg/ml solution, FIG. 3",8 h
same,"prevention of methacholine-induced bronchoconstriction, time following administration","[1]; inhalation of aerosol from 0.144 mg/ml solution, FIG. 2",24 h
same,"complete block of methacholine-induced bronchoconstriction, time following administration","[1]; inhalation of aerosol from 1.44 mg/ml solution, FIG. 1",36 h
same,Ki,muscarinic receptor M2,450 pM
same,concentration at 2.5 min,[2]; [3],0.136 ± 0.038 ng/mL
same,concentration at 10 min,[2]; [3],0.09 ± 0.001 ng/mL
same,concentration at 30 min,[2]; [3],0.081 ± 0.008 ng/mL
same,concentration at 2 h,[2]; [3],0.041 ± 0.006 ng/mL
same,concentration at 4 h,[2]; [3],0.014 ± 0.001 ng/mL
same,concentration at 2.5 min,[2]; [4],0.264 ± 0.021 ng/mL
same,concentration at 10 min,[2]; [4],0.162 ± 0.011 ng/mL
same,concentration at 30 min,[2]; [4],0.112 ± 0.01 ng/mL
same,concentration at 2 h,[2]; [4],0.055 ± 0.007 ng/mL
same,concentration at 4 h,[2]; [4],0.04 ± 0.003 ng/mL
same,concentration at 8 h,[2]; [4],0.012 ± 0.001 ng/mL
same,concentration at 2.5 min,[2]; [5],2.68 ± 0.389 ng/mL
same,concentration at 10 min,[2]; [5],1.4 ± 0.163 ng/mL
same,concentration at 30 min,[2]; [5],1.12 ± 0.042 ng/mL
same,concentration at 2 h,[2]; [5],0.245 ± 0.003 ng/mL
same,concentration at 4 h,[2]; [5],0.157 ± 0.002 ng/mL
same,concentration at 8 h,[2]; [5],0.08 ± 0.002 ng/mL
same,concentration at 12 h,"[2]; Balb/c, mouse, plasma, inhaled, inhalation of 1.44 mg/ml, 12 h, read-out: Plasma concentration ± std dev",0.042 ± 0.002 ng/mL
same,systemic (plasma) exposure,[2]; after aerosol inhalation of 0.072-1.44 mg/ml,very low
same,Ki,muscarinic receptor M5,250 pM
same,Ki,muscarinic receptor M3,200 pM
same,Ki,muscarinic receptor M1,330 pM
same,Ki,muscarinic receptor M4,390 pM

# — patent US6890920B2, “Quaternary ammonium compounds” (Pharmacia & Upjohn Company, priority 1992, dated 2005)
